What all share (assay): relative viability (nuclei count vs DMSO), 5 days (fraction); higher = more cells survive
Compound in the experiment “Tivantinib + Palbociclib”: O=C1NC(=O)[C@@H](c2cn3c4c(cccc24)CCC3)[C@@H]1c1c[nH]c2ccccc12 [Tivantinib] + CC(=O)c1c(C)c2cnc(Nc3ccc(N4CCNCC4)cn3)nc2n(C2CCCC2)c1=O [Palbociclib] (partner 0.5 µM)
In short, it runs like this:
(§1)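 Relative viability was taken as the ratio of nuclei in treated wells to nuclei in vehicle wells. Lung cancer cell lines in 1536-well plates received compounds by pin tool one day after seeding, either one drug alone or a fixed anchor-drug dose plus five library-drug doses (not always all listed) in √10 steps. Nuclei were counted on 4× images after 5 days of treatment, and values are medians of duplicate plates.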

Compound in the experiment “Tivantinib + Olaparib”: O=C1NC(=O)[C@@H](c2cn3c4c(cccc24)CCC3)[C@@H]1c1c[nH]c2ccccc12 [Tivantinib] + O=C(c1cc(Cc2n[nH]c(=O)c3ccccc23)ccc1F)N1CCN(C(=O)C2CC2)CC1 [Olaparib] (partner 8 µM)
In short, it runs like this:
as §1

Compound in the experiment “Tivantinib + Pictilisib”: O=C1NC(=O)[C@@H](c2cn3c4c(cccc24)CCC3)[C@@H]1c1c[nH]c2ccccc12 [Tivantinib] + CS(=O)(=O)N1CCN(Cc2cc3nc(-c4cccc5[nH]ncc45)nc(N4CCOCC4)c3s2)CC1 [Pictilisib] (partner 1 µM)
In short, it runs like this: as §1

Compound in the experiment “Crenolanib + Palbociclib”: CC1(COc2ccc3c(c2)ncn3-c2ccc3cccc(N4CCC(N)CC4)c3n2)COC1 [Crenolanib] + CC(=O)c1c(C)c2cnc(Nc3ccc(N4CCNCC4)cn3)nc2n(C2CCCC2)c1=O [Palbociclib] (partner 0.5 µM)
In short, it runs like this:
as §1

The values below come from the supplement of paper PMC10307832.

Consider NCI-H1975, for which the relative viability with Tivantinib + Palbociclib (first compound 0.01 µM) worked out at 0.55; with Tivantinib + Palbociclib (first compound 0.03162 µM) it was 0.536; with Tivantinib + Palbociclib (first compound 0.1 µM) it was 0.536; in the experiment with Tivantinib + Palbociclib (first compound 0.3162 µM), 0.37; with Tivantinib + Olaparib (first compound 0.01 µM), 0.799; in the experiment with Tivantinib + Olaparib (first compound 0.03162 µM) it was 0.77. Further, the relative viability came to 0.72 with Tivantinib + Olaparib (first compound 0.1 µM); 0.734 in the experiment with Tivantinib + Olaparib (first compound 0.3162 µM); 0.283 with Tivantinib + Pictilisib (first compound 0.01 µM); 0.304 with Tivantinib + Pictilisib (first compound 0.03162 µM); 0.281 with Tivantinib + Pictilisib (first compound 0.1 µM); 0.259 with Tivantinib + Pictilisib (first compound 0.3162 µM). Besides, the relative viability with Crenolanib + Palbociclib (first compound 0.01 µM) stood at 0.623; in the experiment with Crenolanib + Palbociclib (first compound 0.03162 µM), 0.575; with Crenolanib + Palbociclib (first compound 0.1 µM), 0.498; with Crenolanib + Palbociclib (first compound 0.3162 µM), 0.568; with Crenolanib + Palbociclib (first compound 1 µM) it was 0.555.
On to NCI-H1993, for which the relative viability in the experiment with Tivantinib + Palbociclib (first compound 0.01 µM) turned out to be 0.701; with Tivantinib + Palbociclib (first compound 0.03162 µM) it was 0.621; in the experiment with Tivantinib + Palbociclib (first compound 0.1 µM) it was 0.583; in the experiment with Tivantinib + Palbociclib (first compound 0.3162 µM), 0.567; in the experiment with Tivantinib + Olaparib (first compound 0.01 µM) it was 1.22; with Tivantinib + Olaparib (first compound 0.03162 µM), 1.04. Also, the relative viability with Tivantinib + Olaparib (first compound 0.1 µM) stood at 1.05; in the experiment with Tivantinib + Olaparib (first compound 0.3162 µM), 0.589; with Tivantinib + Pictilisib (first compound 0.01 µM), 0.817; in the experiment with Tivantinib + Pictilisib (first compound 0.03162 µM), 0.857; with Tivantinib + Pictilisib (first compound 0.1 µM), 0.843; with Tivantinib + Pictilisib (first compound 0.3162 µM), 0.902. For the same cell line, the relative viability amounted to 0.596 with Crenolanib + Palbociclib (first compound 0.01 µM); 0.704 with Crenolanib + Palbociclib (first compound 0.03162 µM); 0.621 in the experiment with Crenolanib + Palbociclib (first compound 0.1 µM); 0.688 with Crenolanib + Palbociclib (first compound 0.3162 µM); 0.579 in the experiment with Crenolanib + Palbociclib (first compound 1 µM).
With NCI-H2009, the relative viability with Tivantinib + Palbociclib (first compound 0.01 µM) amounted to 0.267; with Tivantinib + Palbociclib (first compound 0.03162 µM), 0.186; in the experiment with Tivantinib + Palbociclib (first compound 0.1 µM), 0.126; with Tivantinib + Palbociclib (first compound 0.3162 µM), 0.207; with Tivantinib + Olaparib (first compound 0.01 µM), 0.714; in the experiment with Tivantinib + Olaparib (first compound 0.03162 µM) it was 0.674. Besides, the relative viability with Tivantinib + Olaparib (first compound 0.1 µM) is 0.746; with Tivantinib + Olaparib (first compound 0.3162 µM) it was 0.643; with Tivantinib + Pictilisib (first compound 0.01 µM), 0.875; with Tivantinib + Pictilisib (first compound 0.03162 µM), 0.464; with Tivantinib + Pictilisib (first compound 0.1 µM), 0.767; with Tivantinib + Pictilisib (first compound 0.3162 µM), 0.763. In addition, the relative viability stood at 0.219 in the experiment with Crenolanib + Palbociclib (first compound 0.01 µM); 0.22 with Crenolanib + Palbociclib (first compound 0.03162 µM); 0.251 with Crenolanib + Palbociclib (first compound 0.1 µM); 0.186 in the experiment with Crenolanib + Palbociclib (first compound 0.3162 µM); 0.19 with Crenolanib + Palbociclib (first compound 1 µM).
With NCI-H2023, the relative viability with Tivantinib + Palbociclib (first compound 0.01 µM) came to 0.447; with Tivantinib + Palbociclib (first compound 0.03162 µM), 0.376; with Tivantinib + Palbociclib (first compound 0.1 µM), 0.334; in the experiment with Tivantinib + Palbociclib (first compound 0.3162 µM), 0.327; in the experiment with Tivantinib + Olaparib (first compound 0.01 µM) it was 0.52; in the experiment with Tivantinib + Olaparib (first compound 0.03162 µM) it was 0.452. For the same cell line, the relative viability worked out at 0.479 with Tivantinib + Olaparib (first compound 0.1 µM); 0.402 with Tivantinib + Olaparib (first compound 0.3162 µM); 0.246 with Tivantinib + Pictilisib (first compound 0.01 µM); 0.225 with Tivantinib + Pictilisib (first compound 0.03162 µM); 0.218 with Tivantinib + Pictilisib (first compound 0.1 µM); 0.202 with Tivantinib + Pictilisib (first compound 0.3162 µM). The relative viability with Crenolanib + Palbociclib (first compound 0.01 µM) was 0.358; with Crenolanib + Palbociclib (first compound 0.03162 µM), 0.373; with Crenolanib + Palbociclib (first compound 0.1 µM), 0.386; in the experiment with Crenolanib + Palbociclib (first compound 0.3162 µM), 0.434; in the experiment with Crenolanib + Palbociclib (first compound 1 µM), 0.335.
As for NCI-H2085, the relative viability worked out at 0.472 with Tivantinib + Palbociclib (first compound 0.01 µM); 0.483 with Tivantinib + Palbociclib (first compound 0.03162 µM); 0.463 with Tivantinib + Palbociclib (first compound 0.1 µM); 0.468 in the experiment with Tivantinib + Palbociclib (first compound 0.3162 µM); 0.825 with Tivantinib + Olaparib (first compound 0.01 µM); 0.817 in the experiment with Tivantinib + Olaparib (first compound 0.03162 µM). The relative viability with Tivantinib + Olaparib (first compound 0.1 µM) is 0.718; with Tivantinib + Olaparib (first compound 0.3162 µM), 0.778; with Tivantinib + Pictilisib (first compound 0.01 µM), 0.477; with Tivantinib + Pictilisib (first compound 0.03162 µM), 0.471; with Tivantinib + Pictilisib (first compound 0.1 µM) it was 0.392; with Tivantinib + Pictilisib (first compound 0.3162 µM) it was 0.515. For the same cell line, the relative viability stood at 0.46 with Crenolanib + Palbociclib (first compound 0.03162 µM), 0.475 with Crenolanib + Palbociclib (first compound 0.1 µM), 0.512 with Crenolanib + Palbociclib (first compound 0.3162 µM) and 0.485 with Crenolanib + Palbociclib (first compound 1 µM).
On to NCI-H2087, for which the relative viability stood at 0.209 in the experiment with Tivantinib + Palbociclib (first compound 0.01 µM); 0.233 with Tivantinib + Palbociclib (first compound 0.03162 µM); 0.276 in the experiment with Tivantinib + Palbociclib (first compound 0.1 µM); 0.228 with Tivantinib + Palbociclib (first compound 0.3162 µM); 0.56 with Tivantinib + Olaparib (first compound 0.01 µM); 0.628 in the experiment with Tivantinib + Olaparib (first compound 0.03162 µM). For the same cell line, the relative viability was 0.602 with Tivantinib + Olaparib (first compound 0.1 µM); 0.658 with Tivantinib + Olaparib (first compound 0.3162 µM); 0.958 with Tivantinib + Pictilisib (first compound 0.01 µM); 0.757 with Tivantinib + Pictilisib (first compound 0.03162 µM); 0.909 with Tivantinib + Pictilisib (first compound 0.1 µM); 0.896 with Tivantinib + Pictilisib (first compound 0.3162 µM). Moreover, the relative viability with Crenolanib + Palbociclib (first compound 0.01 µM) stood at 0.248; in the experiment with Crenolanib + Palbociclib (first compound 0.03162 µM), 0.249; with Crenolanib + Palbociclib (first compound 0.1 µM), 0.233; in the experiment with Crenolanib + Palbociclib (first compound 0.3162 µM) it was 0.211; with Crenolanib + Palbociclib (first compound 1 µM), 0.318.
